# Columns and labels:
# IL-3 receptor = biological target: T1, IL-3 receptor (Homo sapiens, UniProt P26951+P32927); assay: binding affinity for IL-3 receptor (as described by Park et al.)
# T1 construct: endogenous in cells
# T1 sequence (P26951 19-378): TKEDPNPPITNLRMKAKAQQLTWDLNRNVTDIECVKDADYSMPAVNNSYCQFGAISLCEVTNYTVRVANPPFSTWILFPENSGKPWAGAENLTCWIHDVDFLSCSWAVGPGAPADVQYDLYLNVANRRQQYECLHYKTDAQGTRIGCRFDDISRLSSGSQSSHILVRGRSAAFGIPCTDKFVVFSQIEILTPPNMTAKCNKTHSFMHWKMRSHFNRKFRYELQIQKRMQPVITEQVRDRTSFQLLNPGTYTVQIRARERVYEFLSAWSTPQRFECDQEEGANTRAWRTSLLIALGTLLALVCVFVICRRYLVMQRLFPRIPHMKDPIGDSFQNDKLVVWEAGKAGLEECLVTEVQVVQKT
# T1 sequence (P32927 17-897): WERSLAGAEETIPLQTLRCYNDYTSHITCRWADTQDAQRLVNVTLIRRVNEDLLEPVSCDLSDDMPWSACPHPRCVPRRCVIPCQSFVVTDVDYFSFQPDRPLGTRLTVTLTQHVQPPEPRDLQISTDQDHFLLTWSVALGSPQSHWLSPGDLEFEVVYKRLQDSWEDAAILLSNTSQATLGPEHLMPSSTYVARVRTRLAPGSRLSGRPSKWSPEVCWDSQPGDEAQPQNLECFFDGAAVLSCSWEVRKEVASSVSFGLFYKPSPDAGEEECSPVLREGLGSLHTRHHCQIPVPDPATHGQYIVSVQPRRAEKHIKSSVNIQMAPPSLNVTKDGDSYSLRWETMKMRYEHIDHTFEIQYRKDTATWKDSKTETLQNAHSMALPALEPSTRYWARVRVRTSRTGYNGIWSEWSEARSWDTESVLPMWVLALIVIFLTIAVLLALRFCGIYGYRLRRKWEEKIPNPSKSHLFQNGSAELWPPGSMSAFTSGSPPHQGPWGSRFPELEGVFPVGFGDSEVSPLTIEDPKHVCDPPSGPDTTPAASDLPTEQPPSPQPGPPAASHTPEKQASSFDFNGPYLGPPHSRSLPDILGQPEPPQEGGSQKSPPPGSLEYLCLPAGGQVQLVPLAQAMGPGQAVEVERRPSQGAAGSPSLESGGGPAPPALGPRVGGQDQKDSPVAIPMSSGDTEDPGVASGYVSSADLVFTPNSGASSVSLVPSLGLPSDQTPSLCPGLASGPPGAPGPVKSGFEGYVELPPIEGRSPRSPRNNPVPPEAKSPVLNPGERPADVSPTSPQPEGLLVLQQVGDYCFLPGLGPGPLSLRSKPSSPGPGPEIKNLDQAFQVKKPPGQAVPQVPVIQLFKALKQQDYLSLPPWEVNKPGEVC
# Method: (§1) The binding affinity of the recombinant fusion protein for receptors for both GM-CSF and IL-3 were determined substantially as described by Park et al., J. Biol. Chem. 264:5420; 1989, and Park et al., Blood 74:56; 1989.
# TF-1 cells = assay: cell proliferation assay using TF-1 cells (tritiated thymidine incorporation); type: cell-based, human; settings: 72 hours at 37° C., tritiated thymidine for the final four hours
# Method: The potency of the purified recombinant fusion protein was evaluated in a cell proliferation assay using TF-1 cells. TF-1 cells are a continuous cell line derived from human erythroid leukemia cells, and are dependent on IL-3 or GM-CSF for growth. TF-1 cells were maintained in medium containing GM-CSF. Prior to being used in an assay, the cells were washed free of GM-CSF, and resuspended to a concentration of 5×10^4 cells/ml in assay medium (Iscove's Modification of Dulbecco's Medium). The suspended cells were added to the wells of a 96-well microtiter plate containing dilutions of the recombinant fusion protein preparation, positive controls, or negative controls. The cells were incubated at 37° C. for 72 hours; proliferation was measured by adding tritiated thymidine for the final four hours of the incubation. The cells were harvested onto glass fiber filters, and the amount of radioactivity incorporated was determined by scintillation counting.
# GM-CSF receptor = biological target: T2, GM-CSF receptor (Homo sapiens, UniProt P15509+P32927); assay: binding affinity for GM-CSF receptor (as described by Park et al.)
# T2 construct: endogenous in cells
# T2 sequence (P15509 23-400): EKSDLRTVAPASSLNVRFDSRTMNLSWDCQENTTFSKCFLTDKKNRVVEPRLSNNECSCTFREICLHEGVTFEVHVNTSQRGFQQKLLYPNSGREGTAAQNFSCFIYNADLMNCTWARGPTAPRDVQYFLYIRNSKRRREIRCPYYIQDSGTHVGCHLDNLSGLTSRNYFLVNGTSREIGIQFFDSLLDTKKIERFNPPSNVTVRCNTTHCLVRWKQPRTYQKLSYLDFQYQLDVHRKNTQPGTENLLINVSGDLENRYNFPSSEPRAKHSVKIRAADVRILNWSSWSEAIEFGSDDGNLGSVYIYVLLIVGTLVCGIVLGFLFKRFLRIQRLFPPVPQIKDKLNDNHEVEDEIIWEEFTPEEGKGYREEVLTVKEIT
# T2 sequence (P32927 17-897): T1 sequence (P32927 17-897)
# Method: as §1
substance,measurement,setting,value
huGM-CSF[Leu^23 Asp^27 Glu^39 ]/Gly4 SerGly5 Ser/hulL-3[Pro^8 Asp^15 Asp^70 ] [recombinant fusion protein],binding affinity for IL-3 receptor,IL-3 receptor,2.2e+10 M⁻¹
same,potency (a unit is the amount of recombinant fusion protein that induces half-maximal proliferation in the TF-1 bioassay),TF-1 cells,2.1×10^8 U/mg
same,binding affinity for GM-CSF receptor,GM-CSF receptor,1e+10 M⁻¹

# — patent US5463029A, “Purification of fusion proteins comprising GM-CSF and IL-3” (Immunex Corporation, priority 1992, dated 1995)
